Measured values from US8735323B2, “Fungicide N-5-membered fused heteroaryl-methylene-N-cycloalkyl-carboxamide derivatives” (Bayer Cropscience AG, priority 2007, dated 2014).

Test: logP determination by HPLC on reversed-phase column (C 18), EEC Directive 79/831 Annex V.A8
Format: physicochemical
Settings: C 18 reversed-phase, 40° C., 0.1% aqueous formic acid and acetonitrile gradient
Procedure: In the following table, the logP values were determined in accordance with EEC Directive 79/831 Annex V.A8 by HPLC (High Performance Liquid Chromatography) on a reversed-phase column (C 18), using the method described below: Temperature: 40° C.; Mobile phases: 0.1% aqueous formic acid and acetonitrile; linear gradient from 10% acetonitrile to 90% acetonitrile. Calibration was carried out using unbranched alkan-2-ones (comprising 3 to 16 carbon atoms) with known logP values (determination of the logP values by the retention times using linear interpolation between two successive alkanones).

Structure (SMILES): CCc1nn(C)c(F)c1C(=O)N(Cc1cn(-c2ccccc2)c2ccccc12)C1CC1 [Compound 29]
- LogP: 3.89
